Experimental data from ChEMBL document CHEMBL3044884, “Effect of 6-methoxybenzoxazolin-2-one (MBOA) on the reproduction rate of the grain aphid (Sitobion avenae F.)” (2006).

What was measured:
Format in all cases: functional
[1] = test system: Sitobion avenae; assay: Insecticidal activity against 1 to 3 day old Sitobion avenae apterous virginoparous nymphs raised on artificial diet exposed to compound at 8 mM assessed as intrinsic reproduction rate of increase measured after 4 weeks (reference value: 0.00162 intrinsic reproduction rate of increase)
[2] = test system: Sitobion avenae; assay: Insecticidal activity against 1 to 3 day old Sitobion avenae apterous virginoparous nymphs raised on artificial diet exposed to compound at 0.5 mM assessed as intrinsic reproduction rate of increase measured after 4 weeks (reference value: 0.00162 intrinsic reproduction rate of increase)
[3] = test system: Sitobion avenae; assay: Insecticidal activity against 1 to 3 day old Sitobion avenae apterous virginoparous nymphs raised on artificial diet exposed to compound at 0.3 mM assessed as intrinsic reproduction rate of increase measured after 4 weeks (reference value: 0.00162 intrinsic reproduction rate of increase)
[4] = test system: Sitobion avenae; assay: Insecticidal activity against 1 to 3 day old Sitobion avenae apterous virginoparous nymphs raised on artificial diet exposed to compound at 0.05 mM assessed as intrinsic reproduction rate of increase measured after 4 weeks (reference value: 0.00162 intrinsic reproduction rate of increase)
[5] = test system: Sitobion avenae; assay: Insecticidal activity against 1 to 3 day old Sitobion avenae apterous virginoparous nymphs raised on artificial diet exposed to compound at 0.1 mM assessed as intrinsic reproduction rate of increase measured after 4 weeks (reference value: 0.00162 intrinsic reproduction rate of increase)
[6] = test system: Sitobion avenae; assay: Insecticidal activity against 1 to 3 day old Sitobion avenae apterous virginoparous nymphs raised on artificial diet exposed to compound at 0.2 mM assessed as intrinsic reproduction rate of increase measured after 4 weeks (reference value: 0.00162 intrinsic reproduction rate of increase)

In the case of `COc1ccc2[nH]c(=O)oc2c1` [COIXOL], the Activity [1] was 0, the Activity [2] was 0.00048 and the Activity [3] was 0.00075. For the same compound, the Activity [4] was 0.0015, the Activity [5] was 0.00296 and the Activity [6] was 0.00139.
